Source: patent publication US11609238B2, “Method for detecting a radical compound derived from a lipid and a compound derived from the radical compound” (FUSO PHARMACEUTICAL INDUSTRIES, LTD., priority 2017, dated 2023)

Experiments:
[1] = Reactivity of NBD-nitroxide with lipid radicals by fluorometry; conditions: for fluorescence intensity on reaction with lipid radical: lipid radical produced using lipoxygenase (LOX) for LA, ALA or AA, FIG. 3
Description: (§1) In order to investigate reaction selectivities of the above three types of NBD-nitroxide (NBD-Me, NBD-Et and NBD-Pen), reactivities with various ROS and lipid radical were evaluated by fluorometry. […] In addition, in the reaction with these compounds, no significant difference in fluorescence intensity was observed between these nitroxides, and there was no difference between the 2nd and 6th position substituents.

[2] = Reactivity of NBD-nitroxide with reactive oxygen species by fluorometry; conditions: hydrogen peroxide, hypochlorous acid
Description: as §1

[3] = tested on: human umbilical vein endothelial cell (HUVEC); test: Cytotoxicity of NBD-nitroxide, viable cell count; type: cell-based; conditions: viable cells after incubation for 24 hours
Description: Cytotoxicity of NBD-nitroxide was evaluated using human umbilical vein endothelial cell (HUVEC). When each concentration of the compound was added to HUVEC and the number of viable cells after incubation for 24 hours was counted, cytotoxicity was not observed up to 10 μM in any NBD-nitroxide.

[4] = Scavenging of lipid radicals in hepatocellular carcinoma model mouse, LC/FL/MS of liver lipid extract; type: in vivo, mice (C57BL/6J)
Description: It is appropriately selected according to the present invention, but not limited to, HPLC analysis is performed in this Example by injecting 10 μL of a sample solution into an InertSusteain® C18 analytical column (filled with ES silica having a particle size of 3 μm, 2.0×150 mm) manufactured by Mitsubishi Chemical Corporation, which is eluted with a mobile phase (A: 5.0 mM ammonium acetate in H2O, B:ACN:H2O (95:5)) at 40° C. at a rate of 0.4 ml/min. The time program of mobile phase elution was set to B %: 0 to 22 min; 60%, 22 to 60 min; 80%, 60 to 70 min; 100%.
For each fraction eluted, fluorescence observation from NBD-Pen was performed at excitation wavelength (470 nm) and emission wavelength (530 nm) with a fluorescence detector (RF-20A xs manufactured by Shimadzu Corporation).
Next, each fraction thus obtained was introduced into an ion detector (Q Exactive™ Hibrid Quadrupole-Orbitrap™ MS manufactured by Thermo Fisher Scientific Co., Ltd.) by electrospray ionization (ESI) and subjected to mass spectrometry.
Male mice (C57BL/6J) at 8 weeks of age were divided into two groups. As a control, physiological saline (PBS) was administered to mice in Group 1 by intraperitoneal injection. DEN at 100 mg/kg was administered to mice in Group 2 by intraperitoneal injection.
Four hours after DEN administration, a 500 μM NBD-Pen solution was administered at 4 ml/kg to mice in Groups 1 and 2 by intraperitoneal injection.
Fifteen minutes after administration of NBD-Pen, livers were excised from the mice in the respective groups and lipid extraction was performed. LC/FL/MS analysis was performed on extracts under the same conditions as in Example 1. The structure of the radical adduct was analyzed by comparing the fluorescence peak observed at the LC/FL site with the precise mass analysis result at that column retention time. The results are described in Table 2 and FIG. 11.

[5] = tested on: MDA, ALT (GPT), IL-6 in liver extracts of DEN-administered rats; test: Liver lipid peroxidation, hepatic injury and inflammatory markers after DEN administration; type: in vivo, rats (F344); conditions: rat liver extract 24 h after DEN 100 mg/kg i.p.; 500 μM solution at 4 ml/kg 1 h after DEN; vs DEN group; FIG. 5
Description: (§2) Six week-old male rats (F344) were divided into 4 groups, and as a control, rats in Group 1 were administered with saline (PBS) by intraperitoneal injection. Rats in Groups 2-4 were administered with DEN at 100 mg/kg by intraperitoneal injection.
(§3) One hour after DEN administration, physiological saline was administered to rats in Group 2 by intraperitoneal injection, rats in Group 3 were administered with a 500 μM OH-Pen solution at 4 ml/kg, and rats in Group 4 were administered with a 500 μM OH-Pen-NOMe solution at 4 ml/kg.
Twenty-four hours after DEN administration, livers were excised from rats in the respective groups and lipid extraction was carried out. For extracts, amounts of malondialdehyde; MDA as a peroxidized lipid marker, alanine transaminase (glutamate pyruvate transferase; ALT (GPT)) as a hepatic injury marker, and interleukin-6; IL-6 as an inflammatory marker were measured.

hepatocellular carcinoma = test: Hepatocellular carcinogenesis three months after DEN administration, number of tumor foci; type: in vivo, rats (F344); conditions: rats three months after DEN 100 mg/kg i.p.; 500 μM solution at 4 ml/kg 1 h after DEN; FIG. 6
Description: as §2, §3
Three months after DEN administration, rats in the respective groups were subjected to mixed anesthesia of 3 species, and they were sacrificed and livers were taken out promptly. Photographs of the livers taken from the rats of the respective groups are shown in FIG. 6, and the result of counting the number of tumor foci is shown in FIG. 6b.

[6] = superoxide anion radical, hydroxy radical or nitric oxide, FIG. 3
[7] = Gr. 1, no DEN (PBS), mouse liver 15 min after 500 μM NBD-Pen 4 ml/kg i.p.
[8] = Gr. 2, DEN 100 mg/kg i.p., NBD-Pen 500 μM 4 ml/kg i.p. 4 h after DEN, liver 15 min later

Row | Molecule | fluorescence intensity on reaction with lipid radical [1] | fluorescence on reaction with reactive oxygen species [2, 6] | alanine transaminase ALT (GPT), hepatic injury marker [5] | interleukin-6 (IL-6), inflammatory marker [5] | malondialdehyde (MDA), peroxidized lipid marker [5] | hepatocellular carcinogenesis (number of tumor foci) (hepatocellular carcinoma) | other results
1 | 2,2,6-trimethyl-4-(4-nitrobenzo[1,2,5]oxadiazol-7-ylamino)-6-pentylpiperadine-1-oxyl [NBD-Pen] | significantly elevated | fluorescence did not increase much | – | – | – | – | reactivity with the lipid radicals and thermal stability of nitroxide-lipid complex, comparison among Compounds A to C [1]: predominant; fluorescence intensity on reaction with lipid radicals ([1]; LA, ALA, AA activated with LOX, AAPH or MeO-AMVN, FIG. 4): remarkably increased; fluorescence on reaction with reactive oxygen species ([2]; superoxide anion radical or hydroxy radical, FIG. 4): fluorescence did not increase much; concentration up to which cytotoxicity was not observed [3]: > 10 µM; Fluorescent intensity of NBD-Pen-R (a.u.) R [4, 7]: 29.72 a.u.; Fluorescent intensity of NBD-Pen-R (a.u.) R C2H5 [4, 7]: 72.95 a.u.; Fluorescent intensity of NBD-Pen-R (a.u.) R C3H7 [4, 7]: 143.69 a.u.; Fluorescent intensity of NBD-Pen-R (a.u.) R C5H11 [4, 7]: 393.38 a.u.; Fluorescent intensity of NBD-Pen-R (a.u.) R [4, 8]: 353.94 a.u.; Fluorescent intensity of NBD-Pen-R (a.u.) R C2H5 [4, 8]: 704.15 a.u.; Fluorescent intensity of NBD-Pen-R (a.u.) R C3H7 [4, 8]: 1604.07 a.u.; Fluorescent intensity of NBD-Pen-R (a.u.) R C5H11 [4, 8]: 3511.72 a.u.
2 | CCC1(CC)CC(Nc2ccc([N+](=O)[O-])c3nonc23)CC(CC)(CC)N1[O] [NBD-Et] | significantly elevated | fluorescence did not increase much | – | – | – | – | –
3 | CC1(C)CC(Nc2ccc([N+](=O)[O-])c3nonc23)CC(C)(C)N1[O] [NBD-Me] | significantly elevated | fluorescence did not increase much | – | – | – | – | –
4 | CCCCCC1(C)CC(O)CC(C)(C)N1[O] (centres unmarked) [OH-Pen, 4-hydroxy-2,2,6-trimethyl-6-pentylpiperidine-1-oxyl] | – | – | significantly decreased | significantly decreased | significantly decreased | suppressed hepatocellular carcinogenesis | –
5 | CCCCCC1(C)CC(O)CC(C)(C)N1OC (centres unmarked) [OH-Pen-NOMe, 4-hydroxy-1-methoxy-2,2,6-trimethyl-6-pentylpiperidine-1-oxyl] | – | – | almost no drop | almost no drop | almost no drop | not suppressed at all | –
